Test results published in US7713939B2, “Illudin analogs useful as antitumor agents” (priority 1996, dated 2010).

Key:
[1] = tested on: MV522 (human lung carcinoma cell line); assay: 2 hour exposure, [3H]-thymidine incorporation; type: cell-based
Protocol: (§1) To assess cytotoxic effects, various concentrations of illudins were added to cultures of MV522 (human lung carcinoma cell line) and 8392 (B-cell leukemia/lymphoma) cells for 48 hours, then cell growth/viability was determined by trypan blue exclusion. As an alternative to 48 hour continuous exposure studies, cells were plated in liquid culture in 96 well plates, exposed to various concentrations of illudins for 2 hours, pulsed with [^3H]-thymidine for one to two hours and harvested onto glass filters. The filter papers were added to vials containing scintillation fluid and residual radioactivity determined in a beta (scintillation) counter.

[2] = tested on: 8392 (B-cell leukemia/lymphoma) cells; assay: 2 hour exposure, [3H]-thymidine incorporation; type: cell-based
Protocol: as §1

[3] = tested on: MV522 lung carcinoma line; conditions: for efficacy in MV522 xenograft (in words): summary of the in vivo table
From the text: Several analogs were chosen for in vivo studies. […] Drug therapy was started 10 days after inoculation on a daily basis via IP route for 5 consecutive days. The animals were monitored for 3 weeks after start of therapy.
BALB/c nu/nu 4-week old female mice weighing 18-22 g were obtained from Simonsen, Inc. (Gilroy, Calif.) and maintained in the athymic mouse colony of the University of California (San Diego, Calif.) under pathogen free conditions using HEPA filter hoods. Animals were provided with sterilized food and water ad libitum in groups of 5 in plastic cages vented with polyester fiber filter covers. Clean, sterilized gowns, glove, face masks, and shoe and hood covers were worn by all personnel handling the animals. All studies were conducted in accordance with guidelines of the NIH “Guide for Care and Use of Animals” and approved by the University Institutional Animal Care and Use Committee (Protocol 3-006-2)
The MV522 lung carcinoma line used for xenograft studies was derived as described by Kelner et al. (Anticancer Res., 15: 867-872; 873-878 (1995)) and maintained in antibiotic-free RPMI 1640 (Mediatech, Herndon, Va.) supplemented with 10% fetal bovine serum and 2 mM glutamine in 37° C. humidified carbon dioxide incubator.
Each animal was earmarked and followed individually throughout the experiments. Mice received s.c. injections of the parental cell line MV522 using 10 million cells/inoculation over the shoulder. Ten days after s.c. implantation of the MV522 cells, when s.c. tumors were approximately 3×3 mm in size, animals received the desired drug and dosage. The effect of the drug on life span was calculated from median survival.
Although MV522 cells kill mice by metastases, primary s.c. tumor growth over the shoulder was monitored starting on the first day of treatment and at weekly intervals thereafter. Tumor size was measured in two perpendicular diameters. Tumor weights were estimated according to the formula w=(width)^2×length/2). Relative weights (RW) were calculated to standardized variability in tumor size among test groups at initiation of treatment using the formula RW=Wt/wi, where Wi is the tumor weight for a given animal at beginning of drug treatment and Wt is tumor weight at a subsequent time. Animals were necropsied, and organs were examined for evidence of metastases.
Comparison of survival curves between groups of animals was by the method of Kaplan and Meir. For comparison of relative tumor weights between multiple groups of animals, ordinary ANOVA followed by Turkey-Kramer multiple Comparison post ANOVA analysis was preformed (Kelner et al. (Aniticancer Res., 15: 867-872; 873-878 (1995)). Probability values (p) less than 0.05 were considered statistically significant.

[4] = tested on: 8392 (B-cell leukemia/lymphoma) cells; assay: 48 hour continuous exposure, trypan blue exclusion; type: cell-based; conditions: 48 hour exposure
Protocol: as §1

[5] = tested on: MV522 (human lung carcinoma cell line); assay: 48 hour continuous exposure, trypan blue exclusion; type: cell-based; conditions: 48 hour exposure
Protocol: as §1

solid tumor systems = conditions: cited from earlier work
Dunning leukemia = conditions: rats with Dunning leukemia; cited from earlier work

Compound	IC50 [1]	IC50 [2]	IC50 [5]	other results
CC1=C2C(=CC3(C)COCOC23)C(=O)C(C)(O)C12CC2 (stereo not shown) [Compound 14]	0.115 ± 0.03 µM	9.65 ± 1.2 µM		
CO[C@@]12[C@H](COC(N)=O)C3=C(C(=O)C(C)=C(N)C3=O)N1C[C@@H]1N[C@@H]12 [Mitomycin C, reference compound]				day before which all animals succumbed ([3]; mouse, in vivo): < 31 days
CC1=C(CSCC(O)CO)C2=C(C)C3(CC3)C(C)(O)C(=O)C2=C1 (stereo not shown) [Compound 32]	0.595 ± 0.185 µM	> 50 µM		efficacy in MV522 xenograft (in words) [3]: effective
CC1=C(CCCO)C2=C(C)C3(CC3)C(C)(O)C(=O)C2=C1 (stereo not shown) [Compound 9]		47.1 ± 11 µM		IC50 [4]: 15.1 ± 2.2 µM
CC1=C(C=O)C2=C(C)C3(CC3)C(C)(O)C(=O)C2=C1 (stereo not shown) [Compound 11]	4.9 ± 0.9 µM	> 100 µM		IC50 [4]: 40.4 ± 6.7 µM
COC(C)(C)OCC1=C(C)C=C2C(=O)C(C)(O)C3(CC3)C(C)=C21 (stereo not shown) [Compound 21]		34.3 ± 9.4 µM	0.93 ± 0.25 µM	efficacy in MV522 xenograft (in words) [3]: more efficacious than HMAF
CCOCC1=C(C)C=C2C(=O)C(C)(O)C3(CC3)C(C)=C21 (stereo not shown) [Compound 16]				efficacy in MV522 xenograft (in words) [3]: effective
CC1=C2C(=CC(C)(C)[C@@H]2O)C(=O)[C@](C)(O)C12CC2 [Illudin M]				therapeutic index (solid tumor systems): low; life span (Dunning leukemia): significantly increased
COC(=O)CSCC1=C(C)C=C2C(=O)C(C)(O)C3(CC3)C(C)=C21 (stereo not shown) [Compound 25]		> 25 µM		
CC1=C(CCC=O)C2=C(C)C3(CC3)C(C)(O)C(=O)C2=C1 (stereo not shown) [Compound 10]		29.4 ± 1.6 µM		IC50 [4]: 14.5 ± 1.65 µM
CC1=C(COCCO)C2=C(C)C3(CC3)C(C)(O)C(=O)C2=C1 (stereo not shown) [Compound 22]		31.7 ± 1.4 µM	0.68 ± 0.18 µM	
CC1=C(CSCc2ccccc2)C2=C(C)C3(CC3)C(C)(O)C(=O)C2=C1 (stereo not shown) [Compound 24]		12.8 ± 2.14 µM		
CC(=O)OCOCC1=C(C)C=C2C(=O)C(C)(O)C3(CC3)C(C)=C21 (stereo not shown) [Compound 8]	0.87 ± 0.09 µM		0.63 ± 0.08 µM	IC50 [4]: 15.1 ± 2.2 µM
CC1=C(CSc2ccc(O)cc2)C2=C(C)C3(CC3)C(C)(O)C(=O)C2=C1 (stereo not shown) [Compound 23]	2.92 ± 1.14 µM	138 ± 13 µM	2.75 ± 0.51 µM	
CC1=C(CC2CC(C=O)CC(C=O)C2O)C2=C(C)C3(CC3)C(C)(O)C(=O)C2=C1 (mixture of isomers) [Compound 13]	5.12 ± 0.65 µM			
CC1=C2C=CC=C2C(=O)C2(OCCO2)C12CC2 [Compound 33]	> 4 µM	29.9 ± 3.3 µM	4.6 ± 0.2 µM	efficacy in MV522 xenograft (in words) [3]: effective
